Reference: US20130011427A1 (priority 2009, published 2013)
Each block holds one substance with its values, some of them ahead of it.

How the values were obtained:
[1] = tested on: HLA-B7 (HLA-B*0702) Tg mice, CD4-depleted splenocytes; format: cell-based, mouse
[2] = tested on: HLA-DR4/huCD4 (DRB1*0401) Tg mice, CD8-depleted splenocytes; format: cell-based, mouse
[3] = tested on: HLA-A24/huCD8α (HLA-A*2402) Tg mice, CD4-depleted splenocytes; format: cell-based, mouse
[4] = tested on: HLA-A2.1 (HLA-A*0201) Tg mice, CD4-depleted splenocytes; format: cell-based, mouse
[5] = tested on: HLA-DR2 (DRB1*1501) Tg mice, CD8-depleted splenocytes; format: cell-based, mouse
[6] = tested on: HLA-DR3 (DRB1*0301) Tg mice, CD8-depleted splenocytes; format: cell-based, mouse
[7] = molecular target: HLA-B7 (chimeric HLA-B*0702 / H-2K^d heavy chain) (human; murine) (UniProt P01902); assay: cell-based or functional assay
Sequence of UniProt P01902 (P01902 whole entry, change not shown): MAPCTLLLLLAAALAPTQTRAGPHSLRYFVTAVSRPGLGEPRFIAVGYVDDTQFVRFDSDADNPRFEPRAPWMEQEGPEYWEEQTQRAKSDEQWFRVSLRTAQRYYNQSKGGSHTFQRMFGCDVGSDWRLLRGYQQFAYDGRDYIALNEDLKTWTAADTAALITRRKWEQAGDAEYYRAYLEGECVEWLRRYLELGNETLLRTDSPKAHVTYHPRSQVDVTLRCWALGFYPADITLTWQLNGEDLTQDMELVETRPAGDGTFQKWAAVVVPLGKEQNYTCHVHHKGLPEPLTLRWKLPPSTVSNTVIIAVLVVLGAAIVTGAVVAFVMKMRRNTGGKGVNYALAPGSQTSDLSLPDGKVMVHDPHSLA

[8] = molecular target: HLA-A2.1 (HHD monochain) (human; murine); assay: cell-based or functional assay
[9] = molecular target: HLA-A24 (HLA-A*2402 with human β2-microglobulin) (human); assay: cell-based or functional assay
[10] = molecular target: HLA-DR4 (HLA-DRA*0101 / HLA-DRB1*0401) (human); assay: cell-based or functional assay
[11] = molecular target: HLA-DR2 (chimeric HLA-DRA1*0101/DRB1*1501 with I-E domains) (human; murine) (UniProt Q8BHN5); assay: cell-based or functional assay
Sequence of UniProt Q8BHN5 (Q8BHN5 whole entry, stated change not applied): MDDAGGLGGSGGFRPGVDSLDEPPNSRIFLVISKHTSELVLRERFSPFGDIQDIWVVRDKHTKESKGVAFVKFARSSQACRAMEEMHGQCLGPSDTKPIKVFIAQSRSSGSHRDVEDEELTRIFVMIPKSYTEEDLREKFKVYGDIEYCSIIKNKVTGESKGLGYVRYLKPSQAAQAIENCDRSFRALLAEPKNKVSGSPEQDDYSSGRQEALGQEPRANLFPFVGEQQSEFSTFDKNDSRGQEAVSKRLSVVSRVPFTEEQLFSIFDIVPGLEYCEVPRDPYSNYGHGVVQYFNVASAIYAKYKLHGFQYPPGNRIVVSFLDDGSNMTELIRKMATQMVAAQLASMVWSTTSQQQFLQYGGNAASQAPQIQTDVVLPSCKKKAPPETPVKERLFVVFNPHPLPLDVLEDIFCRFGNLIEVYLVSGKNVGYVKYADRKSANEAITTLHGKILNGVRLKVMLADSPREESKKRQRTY

[12] = molecular target: HLA-DR3 (HLA-DRA*0101 / HLA-DRB1*0301) (human); assay: cell-based or functional assay

Substance: CDIGESSSSAEVEEHRTI [NS5 145-162]
T cell activation of HLA transgenic mice (SFC/10^6) IFN-γ ELISpot, B7 [1]: 50 ± 22 SFC/10^6

Substance: GGVLWDTPSPKEYKK [NS3 1-15]
T cell activation of HLA transgenic mice (SFC/10^6) IFN-γ ELISpot, B7 [1]: 45 ± 12 SFC/10^6

Substance: GIDTNAYYVMTVGTKTFL [E 195-212]
T cell activation of HLA transgenic mice (SFC/10^6) IFN-γ ELISpot, DR4 [2]: 53 ± 16 SFC/10^6
T cell activation of HLA transgenic mice (SFC/10^6) IFN-γ ELISpot, A24 [3]: 137 ± 70 SFC/10^6

Substance: GKSRAVNMLKRGMPRVL [C 9-25]
T cell activation of HLA transgenic mice (SFC/10^6) IFN-γ ELISpot, B7 [1]: 43 ± 17 SFC/10^6

Substance: ILESDLIIPVTLAGPR [NS1 236-251]
T cell activation of HLA transgenic mice (SFC/10^6) IFN-γ ELISpot, A2 [4]: 78 ± 42 SFC/10^6
T cell activation of HLA transgenic mice (SFC/10^6) IFN-γ ELISpot, A24 [3]: 43 ± 18 SFC/10^6

Substance: ILPSVVGFWITLQYTKR [NS2b 115-131]
T cell activation of HLA transgenic mice (SFC/10^6) IFN-γ ELISpot, A2 [4]: 108 ± 60 SFC/10^6
T cell activation of HLA transgenic mice (SFC/10^6) IFN-γ ELISpot, A24 [3]: 56 ± 2 SFC/10^6

Substance: ISAYTPWAILPSVVGFWI [NS2b 107-124]
T cell activation of HLA transgenic mice (SFC/10^6) IFN-γ ELISpot, DR4 [2]: 163 ± 4 SFC/10^6
T cell activation of HLA transgenic mice (SFC/10^6) IFN-γ ELISpot, B7 [1]: 81 ± 8 SFC/10^6
T cell activation of HLA transgenic mice (SFC/10^6) IFN-γ ELISpot, A24 [3]: 50 ± 11 SFC/10^6

Substance: LRNPGYALVAAVIGWML [prM 129-145]
T cell activation of HLA transgenic mice (SFC/10^6) IFN-γ ELISpot, DR2 [5]: 62 ± 11 SFC/10^6
T cell activation of HLA transgenic mice (SFC/10^6) IFN-γ ELISpot, B7 [1]: 31 ± 7 SFC/10^6
T cell activation of HLA transgenic mice (SFC/10^6) IFN-γ ELISpot, A24 [3]: 71 ± 38 SFC/10^6

Substance: MLGSNTMQRVVFVVLLLL [prM 144-161]
T cell activation of HLA transgenic mice (SFC/10^6) IFN-γ ELISpot, DR4 [2]: 315 ± 157 SFC/10^6
T cell activation of HLA transgenic mice (SFC/10^6) IFN-γ ELISpot, DR2 [5]: 84 ± 32 SFC/10^6
T cell activation of HLA transgenic mice (SFC/10^6) IFN-γ ELISpot, DR3 [6]: 134 ± 35 SFC/10^6
T cell activation of HLA transgenic mice (SFC/10^6) IFN-γ ELISpot, A24 [3]: 59 ± 18 SFC/10^6

Substance: PAAPSYTLKLGEYGEVTV [E 171-188]
T cell activation of HLA transgenic mice (SFC/10^6) IFN-γ ELISpot, A2 [4]: 279 ± 217 SFC/10^6
T cell activation of HLA transgenic mice (SFC/10^6) IFN-γ ELISpot, B7 [1]: 996 ± 100 SFC/10^6

Substance: SAEVEEHRTIRVLEMV [NS5 153-168]
T cell activation of HLA transgenic mice (SFC/10^6) IFN-γ ELISpot, A2 [4]: 332 ± 52 SFC/10^6
T cell activation of HLA transgenic mice (SFC/10^6) IFN-γ ELISpot, DR2 [5]: 250 ± 24 SFC/10^6
T cell activation of HLA transgenic mice (SFC/10^6) IFN-γ ELISpot, B7 [1]: 112 ± 72 SFC/10^6

Substance: TFLVHREWFMDLNLPW [E 210-225]
T cell activation of HLA transgenic mice (SFC/10^6) IFN-γ ELISpot, A2 [4]: 323 ± 175 SFC/10^6
T cell activation of HLA transgenic mice (SFC/10^6) IFN-γ ELISpot, B7 [1]: 519 ± 477 SFC/10^6

Substance: TWAENIQVAINQVRAII [NS5 863-879]
T cell activation of HLA transgenic mice (SFC/10^6) IFN-γ ELISpot, DR4 [2]: 33 ± 1 SFC/10^6
T cell activation of HLA transgenic mice (SFC/10^6) IFN-γ ELISpot, DR3 [6]: 121 ± 2 SFC/10^6
T cell activation of HLA transgenic mice (SFC/10^6) IFN-γ ELISpot, A24 [3]: 79 ± 11 SFC/10^6

Substance: VFGGITYTDVLRYVILV [NS2a 45-61]
T cell activation of HLA transgenic mice (SFC/10^6) IFN-γ ELISpot, DR4 [2]: 74 ± 11 SFC/10^6
T cell activation of HLA transgenic mice (SFC/10^6) IFN-γ ELISpot, DR2 [5]: 307 ± 119 SFC/10^6
T cell activation of HLA transgenic mice (SFC/10^6) IFN-γ ELISpot, A24 [3]: 243 ± 196 SFC/10^6

Substance: VLGVATFFCWMAEVPGTK [NS4a 86-103]
T cell activation of HLA transgenic mice (SFC/10^6) IFN-γ ELISpot, DR4 [2]: 63 ± 1 SFC/10^6
T cell activation of HLA transgenic mice (SFC/10^6) IFN-γ ELISpot, A24 [3]: 65 ± 30 SFC/10^6

Substance: WFMWLGARFLEFEALGFL [NS5 477-494]
T cell activation of HLA transgenic mice (SFC/10^6) IFN-γ ELISpot, A24 [3]: 198 ± 60 SFC/10^6

Substance: WMEDKTPVEKWSDVPY [NS5 828-843]
T cell activation of HLA transgenic mice (SFC/10^6) IFN-γ ELISpot, B7 [1]: 39 ± 14 SFC/10^6

IFN-γ ELISpot (SFC/10^6) [7]: 43 SFC/10^6
Substance: WNV C 9-25 peptide

Substance: WNV E 171-188 peptide
IFN-γ ELISpot (SFC/10^6) [8]: 279 SFC/10^6
IFN-γ ELISpot (SFC/10^6) [7]: 996 SFC/10^6

IFN-γ ELISpot (SFC/10^6) [9]: 137 SFC/10^6
IFN-γ ELISpot (SFC/10^6) [10]: 53 SFC/10^6
Substance: WNV E 195-212 peptide

Substance: WNV E 210-225 peptide
IFN-γ ELISpot (SFC/10^6) [8]: 323 SFC/10^6
IFN-γ ELISpot (SFC/10^6) [7]: 519 SFC/10^6

IFN-γ ELISpot (SFC/10^6) [11]: 307 SFC/10^6
IFN-γ ELISpot (SFC/10^6) [9]: 243 SFC/10^6
IFN-γ ELISpot (SFC/10^6) [10]: 74 SFC/10^6
Substance: WNV NS2a 45-61 peptide

IFN-γ ELISpot (SFC/10^6) [9]: 50 SFC/10^6
IFN-γ ELISpot (SFC/10^6) [7]: 81 SFC/10^6
IFN-γ ELISpot (SFC/10^6) [10]: 163 SFC/10^6
Substance: WNV NS2b 107-124 peptide

IFN-γ ELISpot (SFC/10^6) [7]: 45 SFC/10^6
Substance: WNV NS3 1-15 peptide

IFN-γ ELISpot (SFC/10^6) [9]: 65 SFC/10^6
IFN-γ ELISpot (SFC/10^6) [10]: 63 SFC/10^6
Substance: WNV NS4a 86-103 peptide

IFN-γ ELISpot (SFC/10^6) [7]: 50 SFC/10^6
Substance: WNV NS5 145-162 peptide

Substance: WNV NS5 153-168 peptide
IFN-γ ELISpot (SFC/10^6) [11]: 250 SFC/10^6
IFN-γ ELISpot (SFC/10^6) [8]: 332 SFC/10^6
IFN-γ ELISpot (SFC/10^6) [7]: 112 SFC/10^6

Substance: WNV NS5 470-486 peptide
IFN-γ ELISpot (SFC/10^6) [9]: 183 SFC/10^6

Substance: WNV NS5 763-780 peptide
IFN-γ ELISpot (SFC/10^6) [7]: 36 SFC/10^6
IFN-γ ELISpot (SFC/10^6) [10]: 91 SFC/10^6

IFN-γ ELISpot (SFC/10^6) [7]: 39 SFC/10^6
Substance: WNV NS5 828-843 peptide

IFN-γ ELISpot (SFC/10^6) [9]: 79 SFC/10^6
IFN-γ ELISpot (SFC/10^6) [10]: 33 SFC/10^6
IFN-γ ELISpot (SFC/10^6) [12]: 121 SFC/10^6
Substance: WNV NS5 863-879 peptide

IFN-γ ELISpot (SFC/10^6) [11]: 62 SFC/10^6
IFN-γ ELISpot (SFC/10^6) [9]: 71 SFC/10^6
IFN-γ ELISpot (SFC/10^6) [7]: 31 SFC/10^6
Substance: WNV prM 129-145 peptide

Substance: YAQMWLLLYFHRRDLRLM [NS5 763-780]
T cell activation of HLA transgenic mice (SFC/10^6) IFN-γ ELISpot, DR4 [2]: 91 ± 32 SFC/10^6
T cell activation of HLA transgenic mice (SFC/10^6) IFN-γ ELISpot, B7 [1]: 36 ± 16 SFC/10^6
